In patent US20080221218A1, “Receptor” (The University of York, priority 2005, published 2008):

What was measured:
[1] = literature (Bertsch et al.); cited from earlier work
[2] = Potentiometric titrations: protonation constants; type: physicochemical; settings: potentiometry, 0.1 M KCl, 25° C.; for Protonation constant (log K) 2H+ + L ⇄ H2L2+ / Protonation constant (log K) 3H+ + L ⇄ H3L3+ / Protonation constant (log K) 4H+ + L ⇄ H4L4+: cumulative; for Protonation constant (log K) H+ + H2L2+ ⇄ H3L3+ / Protonation constant (log K) H+ + H3L3+ ⇄ H4L4+ / Protonation constant (log K) H+ + HL+ ⇄ H2L2+: stepwise
Description: (§1) Potentiometric measurements were conducted using a Metrohm 792SM Titrino automated burette fitted with a combined glass electrode and an in-house designed jacketed glass cell thermostated at 25° C. suitable for small sample volumes (5 mL). The cell was sealed under an inert atmosphere. All solutions were made up using ultrapure CO2-free water from a Millipore Simplicity 185 system. The sample solutions contained 0.1 M KCl as a background electrolyte. The titrant base was made up from commercial (Riedel-de Haën) CO2-free concentrates of KOH, diluted to the required concentration (0.020 M) with a 0.080 M KCl solution to avoid problems of different ionic strengths. The glass electrode was calibrated by titrating well-known amounts of HCl (made up from Riedel-de Haën concentrates) with the base and determining the equivalence point using Gran's method (G. Gran, Analyst, 1952, 77, 661-671) yielding the ionic product of water (pKw=13.78), which was used as a constant in the subsequent analyses.
(§2) Sample concentrations were typically 1.0-5.0×10^−3 M. A known excess of HCl was added to ensure full protonation of the receptor. The degree of protonation of our receptors was calculated from the onset of titration curve. […] A minimum of 250 points in the pH-range of 2.5-11.0 was taken for every titration, with at least 30 seconds between each addition to ensure equilibration. The computer program […]^I was used to determine the protonation and stability constants. For each system a minimum of three titrations were first treated as individual sets and then merged and fitted simultaneously to give the final constants.
To study the binding in more detail we used potentiometry. To enable this, we first investigated the protonation constants of the receptors and the data is collected in Table 1. We calibrated our system with spermine (compound 4) and the data for this compound are also included in this table and were in accordance with literature values (Bazzicalupi et al, J. Am. Chem. Soc. 121: 6807-6815 (1999); De Stefano et al., J. Chem. Soc. Faraday Trans, 94:1091-1095 (1998); Bergeron et al., J. Med. Chem. 38:2278-2285 (1995)).

[3] = Potentiometric titrations: binding of inorganic phosphate (equimolar KH2PO4 and receptor); settings: for Binding constant (Log K) H3L3+ + HA2− ⇄ H4LA+ / Binding constant (Log K) H4L4+ + HA2− ⇄ H5LA2+ / Protonation and binding constant (Log K) 4H+ + L + A3− ⇄ H4LA+ / Protonation and binding constant (Log K) 5H+ + L + A3− ⇄ H5LA2+ / Binding constant (Log K) H2L2+ + HA2− ⇄ H3LA / Binding constant (Log K) H4L4+ + H2A− ⇄ H6LA3+ / Protonation and binding constant (Log K) 3H+ + L + A3− ⇄ H3LA / Protonation and binding constant (Log K) 6H+ + L + A3− ⇄ H6LA3+: A = phosphate, 0.1 M KCl, 25° C.; for Binding constant (Log K) H3L3+ + HA2− ⇄ H4LA+ / Binding constant (Log K) H4L4+ + HA2− ⇄ H5LA2+ / Protonation and binding constant (Log K) 4H+ + L + A3− ⇄ H4LA+ / Protonation and binding constant (Log K) 5H+ + L + A3− ⇄ H5LA2+ / affinity towards inorganic phosphate (log K), range over protonation states / Binding constant (Log K) H2L2+ + HA2− ⇄ H3LA / Binding constant (Log K) H4L4+ + H2A− ⇄ H6LA3+ / Protonation and binding constant (Log K) 3H+ + L + A3− ⇄ H3LA / Protonation and binding constant (Log K) 6H+ + L + A3− ⇄ H6LA3+: potentiometry; for Protonation and binding constant (Log K) 4H+ + L + A3− ⇄ H4LA+ / Protonation and binding constant (Log K) 5H+ + L + A3− ⇄ H5LA2+ / Protonation and binding constant (Log K) 3H+ + L + A3− ⇄ H3LA / Protonation and binding constant (Log K) 6H+ + L + A3− ⇄ H6LA3+: overall constant; for phosphate in solution bound by receptor: pH 7.0, from speciation diagrams of potentiometric data (FIG. 4); for affinity towards inorganic phosphate (log K), range over protonation states: summary of Table 2; for Binding constant (Log K) H2L2+ + HA2− ⇄ H3LA / Binding constant (Log K) H4L4+ + H2A− ⇄ H6LA3+ / Protonation and binding constant (Log K) 3H+ + L + A3− ⇄ H3LA / Protonation and binding constant (Log K) 6H+ + L + A3− ⇄ H6LA3+: dash = equilibrium does not occur significantly
Description: as §1, §2

[4] = Fluorimetric titrations: quenching of fluorescent phosphate derivative 13; settings: 1:1 binding model; 0.1 M TRIS buffer pH 7.0; 13 at 5.0×10^−6 M
Description: Titrations were performed on a Spex Fluoromax-II instrument at 25° C. in a 0.1 M TRIS buffer of pH 7.0, using an excitation wavelength of 324 nm.
Upon titration of our receptors to a solution of this probe in buffered water (0.1 M Tris, pH 7.0) the emission of compound 13 was quenched indicating binding (FIG. 3).
This is related to the trans configuration of the oligoamines around the conformationally restricted scaffold in compound 1 preventing the oligoamines from cooperating.

SMILES	first protonation pKa [1]	second protonation pKa [1]	Protonation constant (log K) 2H+ + L ⇄ H2L2+ [2]	Protonation constant (log K) 3H+ + L ⇄ H3L3+ [2]	Protonation constant (log K) 4H+ + L ⇄ H4L4+ [2]	Protonation constant (log K) H+ + L ⇄ HL+ [2]	Protonation constant (log K) H+ + H2L2+ ⇄ H3L3+ [2]	Protonation constant (log K) H+ + H3L3+ ⇄ H4L4+ [2]	Protonation constant (log K) H+ + HL+ ⇄ H2L2+ [2]	Binding constant (Log K) H3L3+ + HA2− ⇄ H4LA+ [3]	Binding constant (Log K) H4L4+ + HA2− ⇄ H5LA2+ [3]	Protonation and binding constant (Log K) 4H+ + L + A3− ⇄ H4LA+ [3]	Protonation and binding constant (Log K) 5H+ + L + A3− ⇄ H5LA2+ [3]	phosphate in solution bound by receptor [3] [%]	affinity towards inorganic phosphate (log K), range over protonation states [3]	binding constant (log K) for fluorescent phosphate derivative 13 [4]	Binding constant (Log K) H2L2+ + HA2− ⇄ H3LA [3]	Binding constant (Log K) H4L4+ + H2A− ⇄ H6LA3+ [3]	Protonation and binding constant (Log K) 3H+ + L + A3− ⇄ H3LA [3]	Protonation and binding constant (Log K) 6H+ + L + A3− ⇄ H6LA3+ [3]
NCCN [1,2-diaminoethane]	10.1	7.0	–	–	–	–	–	–	–	–	–	–	–	–	–	–	–	–	–	–
NCCCN [1,3-diaminopropane]	10.6	8.6	–	–	–	–	–	–	–	–	–	–	–	–	–	–	–	–	–	–
NCCCCN [1,4-diaminobutane]	–	9.4	–	–	–	–	–	–	–	–	–	–	–	–	–	–	–	–	–	–
CN(CCCN)CCCNC(=O)/C=C/C(=O)NCCCN(C)CCCN [Compound 1]	–	–	20.05	28.42	35.50	10.45	8.37	7.08	9.60	2.90	3.39	42.87	50.44	31	2.9-3.4	no significant binding occurs	–	–	–	–
CN(CCCN)CCCNC(=O)/C=C\C(=O)NCCCN(C)CCCN [Compound 2]	–	–	19.06	26.52	30.27	10.04	7.46	3.75	9.02	5.27	8.55	43.27 (7)	50.30 (7)	95	4.4-8.6	5.15	4.40	7.67	34.94 (4)	56.33 (9)
CN1CCCNCc2cccc(c2)CNCCCN(C)CCCNC(=O)/C=C\C(=O)NCCC1 [Compound 3]	–	–	18.82	25.14	28.11	10.32	6.32	2.97	8.50	10.24	–	46.85 (4)	53.76 (5)	–	–	5.30	7.53	10.90	37.83 (4)	57.40 (5)
NCCCNCCCCNCCCN [Compound 4, spermine, reference compound]	–	–	20.63	29.50	37.58	10.64	8.87	8.08	9.99	–	–	–	–	–	–	–	–	–	–	–
CN(CCCN)CCCNC(=O)[C@@H]1C2C=CC(C2)[C@H]1C(=O)NCCCN(C)CCCN [Compound 14]	–	–	18.49	25.67	27.91	9.76	7.18	2.24	8.73	5.52	10.70	42.67 (3)	50.09 (3)	95	–	–	4.37	10.17	34.34 (3)	56.47 (3)
